This note sets out measurements from the supplement of paper PMC10307832.

Holding throughout (assay): relative viability (nuclei count vs DMSO), 5 days (fraction); higher = more cells survive
Compound in the assay “QS11 + Bortezomib”: C1CC2=C(C1)C=C(C=C2)OC3=NC(=C4C(=N3)N(C=N4)CC5=CC=C(C=C5)C6=CC=CC=C6)N[C@@H](CC7=CC=CC=C7)CO [QS11] + CC(C)C[C@H](NC(=O)[C@H](Cc1ccccc1)NC(=O)c1cnccn1)B(O)O [Bortezomib] (partner 0.002 µM)
The procedure, abridged: (§1)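 Relative viability is defined as nuclei in treated wells over nuclei in vehicle wells. Duplicate plates were run and medians reported. Lung cancer cell lines in 1536-well plates were dosed by pin tool one day after seeding, with one drug or with a fixed anchor-drug dose plus five library-drug doses (not always all listed) in √10 steps, and nuclei were counted after 5 days.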

Compound in the assay “QS11 + Foretinib”: C1CC2=C(C1)C=C(C=C2)OC3=NC(=C4C(=N3)N(C=N4)CC5=CC=C(C=C5)C6=CC=CC=C6)N[C@@H](CC7=CC=CC=C7)CO [QS11] + COc1cc2c(Oc3ccc(NC(=O)C4(C(=O)Nc5ccc(F)cc5)CC4)cc3F)ccnc2cc1OCCCN1CCOCC1 [Foretinib] (partner 0.25 µM)
The procedure, abridged:
as §1

Compound in the assay “AZ628 + Tozasertib”: CC1=C(C=C(C=C1)NC(=O)C2=CC(=CC=C2)C(C)(C)C#N)NC3=CC4=C(C=C3)N=CN(C4=O)C [AZ628] + Cc1cc(Nc2cc(N3CCN(C)CC3)nc(Sc3ccc(NC(=O)C4CC4)cc3)n2)n[nH]1 [Tozasertib] (partner 0.1 µM)
The essentials:
as §1

Compound in assay [1]: C[As](C)SC[C@H](NC(=O)CC[C@H](N)C(=O)O)C(=O)NCC(=O)O [Darinaparsin] + O=C(CCCCCCC(=O)Nc1ccccc1)NO [Vorinostat] (partner 1 µM)
The essentials:
as §1

Regarding NCI-H1915, the relative viability in the assay with QS11 + Bortezomib (first compound 0.08 µM) worked out at 0.985; with QS11 + Bortezomib (first compound 0.253 µM), 1.08; with QS11 + Bortezomib (first compound 2.53 µM) it was 0.967; with QS11 + Bortezomib (first compound 8 µM), 0.979; in the assay with QS11 + Foretinib (first compound 0.08 µM), 1.17; with QS11 + Foretinib (first compound 0.253 µM), 1.18. Further, the relative viability stood at 1.07 with QS11 + Foretinib (first compound 2.53 µM); 1.01 in the assay with QS11 + Foretinib (first compound 8 µM); 0.429 in the assay with AZ628 + Tozasertib (first compound 0.08 µM); 0.412 with AZ628 + Tozasertib (first compound 0.253 µM); 0.377 with AZ628 + Tozasertib (first compound 0.8 µM); 0.309 with AZ628 + Tozasertib (first compound 2.53 µM). The relative viability with AZ628 + Tozasertib (first compound 8 µM) was 0.206; in assay [1] (first compound 0.08 µM), 0.502; in assay [1] (first compound 0.8 µM), 0.468; in assay [1] (first compound 2.53 µM), 0.485; in assay [1] (first compound 8 µM), 0.579.

Regarding NCI-H2347, the relative viability is 1.11 with QS11 + Bortezomib (first compound 0.08 µM); 1.19 in the assay with QS11 + Bortezomib (first compound 0.253 µM); 0.757 with QS11 + Bortezomib (first compound 0.8 µM); 0.997 with QS11 + Bortezomib (first compound 2.53 µM); 1.04 with QS11 + Bortezomib (first compound 8 µM); 0.825 with QS11 + Foretinib (first compound 0.08 µM). The relative viability in the assay with QS11 + Foretinib (first compound 0.253 µM) is 1.18; in the assay with QS11 + Foretinib (first compound 0.8 µM), 1.01; with QS11 + Foretinib (first compound 2.53 µM), 0.942; with QS11 + Foretinib (first compound 8 µM), 0.994; with AZ628 + Tozasertib (first compound 0.08 µM) it was 0.491; in the assay with AZ628 + Tozasertib (first compound 0.253 µM), 0.514. Moreover, the relative viability with AZ628 + Tozasertib (first compound 0.8 µM) amounted to 0.555; with AZ628 + Tozasertib (first compound 2.53 µM), 0.514; in the assay with AZ628 + Tozasertib (first compound 8 µM) it was 0.303; in assay [1] (first compound 0.08 µM), 0.477; in assay [1] (first compound 0.8 µM), 0.541; in assay [1] (first compound 2.53 µM) it was 0.679. The relative viability in assay [1] (first compound 8 µM) amounted to 0.718.

As to NCI-H647, the relative viability in the assay with QS11 + Bortezomib (first compound 0.08 µM) worked out at 0.938; with QS11 + Bortezomib (first compound 0.253 µM), 0.987; with QS11 + Bortezomib (first compound 0.8 µM) it was 0.976; with QS11 + Bortezomib (first compound 2.53 µM), 1.08; with QS11 + Bortezomib (first compound 8 µM), 0.894; with QS11 + Foretinib (first compound 0.08 µM) it was 1.17. In addition, the relative viability with QS11 + Foretinib (first compound 0.253 µM) was determined as 1.24; with QS11 + Foretinib (first compound 0.8 µM) it was 0.988; with QS11 + Foretinib (first compound 2.53 µM), 1.09; with QS11 + Foretinib (first compound 8 µM), 1.06; in the assay with AZ628 + Tozasertib (first compound 0.08 µM) it was 0.293; in the assay with AZ628 + Tozasertib (first compound 0.253 µM), 0.262. For the same cell line, the relative viability amounted to 0.296 with AZ628 + Tozasertib (first compound 0.8 µM); 0.269 with AZ628 + Tozasertib (first compound 2.53 µM); 0.146 with AZ628 + Tozasertib (first compound 8 µM); 0.608 in assay [1] (first compound 0.08 µM); 0.751 in assay [1] (first compound 0.8 µM); 0.539 in assay [1] (first compound 2.53 µM). Further, in assay [1] (first compound 8 µM), the relative viability came out at 0.572.

CAL-12T: the relative viability with QS11 + Bortezomib (first compound 0.08 µM) was 0.893; with QS11 + Bortezomib (first compound 0.253 µM) it was 0.865; with QS11 + Bortezomib (first compound 0.8 µM), 0.809; with QS11 + Bortezomib (first compound 2.53 µM), 1.07; with QS11 + Bortezomib (first compound 8 µM), 1.03; in the assay with QS11 + Foretinib (first compound 0.08 µM), 1.04. The relative viability in the assay with QS11 + Foretinib (first compound 0.253 µM) is 1.1; in the assay with QS11 + Foretinib (first compound 0.8 µM), 0.98; in the assay with QS11 + Foretinib (first compound 2.53 µM), 1.06; with QS11 + Foretinib (first compound 8 µM), 0.939; with AZ628 + Tozasertib (first compound 0.08 µM) it was 0.343; with AZ628 + Tozasertib (first compound 0.253 µM), 0.366. The relative viability in the assay with AZ628 + Tozasertib (first compound 0.8 µM) came to 0.288; in the assay with AZ628 + Tozasertib (first compound 2.53 µM) it was 0.292; with AZ628 + Tozasertib (first compound 8 µM), 0.182; in assay [1] (first compound 0.08 µM) it was 1.09; in assay [1] (first compound 0.8 µM), 0.707; in assay [1] (first compound 2.53 µM), 0.785. Besides, in assay [1] (first compound 8 µM), the relative viability stood at 0.931.
